Tests used:
[1] = molecular target: T1, estrogen receptor binding to an estrogen response element (Homo sapiens, UniProt P03372); assay: Inhibition of estrogen receptor binding to an estrogen response element in DNA mobility shift assays; assay type: biochemical, human (nuclear extract of MCF-7 human breast cancer cells)
T1 construct: estrogen receptor extracted from MCF-7 human breast tumor cells; endogenous in cells; host or cells: MCF-7 human breast cancer cells (nuclear extract, cytosol or whole cell extract)
T1 sequence (P03372 1-595): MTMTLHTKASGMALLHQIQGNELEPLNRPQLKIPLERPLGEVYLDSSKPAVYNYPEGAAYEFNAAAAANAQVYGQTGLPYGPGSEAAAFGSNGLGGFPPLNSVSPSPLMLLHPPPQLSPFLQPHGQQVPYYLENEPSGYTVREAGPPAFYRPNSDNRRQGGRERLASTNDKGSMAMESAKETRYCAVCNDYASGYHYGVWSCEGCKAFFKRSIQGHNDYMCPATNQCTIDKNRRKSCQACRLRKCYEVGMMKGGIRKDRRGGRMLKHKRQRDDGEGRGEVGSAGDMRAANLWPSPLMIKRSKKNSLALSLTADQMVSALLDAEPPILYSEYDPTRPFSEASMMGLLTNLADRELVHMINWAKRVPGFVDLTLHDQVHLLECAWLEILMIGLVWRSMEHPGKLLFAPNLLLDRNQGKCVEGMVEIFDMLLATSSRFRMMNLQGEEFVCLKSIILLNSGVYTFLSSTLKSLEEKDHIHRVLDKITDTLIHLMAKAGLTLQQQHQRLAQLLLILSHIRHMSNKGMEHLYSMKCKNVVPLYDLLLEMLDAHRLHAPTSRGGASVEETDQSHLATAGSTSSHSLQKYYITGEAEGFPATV
Protocol: (§1) Monolayers of MCF-7 human breast cancer cells are rinsed once with HBSS and scraped off culture dishes into 15 ml conical tubes with 5 ml HBSS. The cells are sedimented by centrifugation at 250×g for five minutes, suspended in 1 ml HBSS and sedimented by centrifugation at 2000 rpm in a tabletop centrifuge for five minutes in a 1.5 ml microfuge tube. Two PCV of a solution of a lysis buffer (25 mM HEPES, pH 7.8, 50 mM KCl, 0.5% Nonidet P 40, 2 mM dithiothreitol, 0.2 mM phenylmethylsulfonyl fluoride, 0.05 mg/ml leupeptin, 0.05 mg/ml aprotinin, 0.0025 mg/ml pepstatin, 0.005 mg/ml antipain) are added and cells are kept on ice for 15 minutes. Lysed cells are centrifuged for 3 minutes at 10,000×g, supernatant decanted, and kept as the cytosol fraction. Pellets are suspended in two PCV of extraction buffer (25 mM HEPES, pH 7.8, 500 mM KCl, 10% glycerol, 2 mM dithiothreitol and the above protease inhibitors), mixed for 20 minutes by inversion at 4 degrees C. and centrifuged at 10,000×g for 20 minutes. The supernatant is decanted and saved as nuclear extract. Both the nuclear extract and the cytosol are dialyzed for two hours against dialysis buffer (25 mM HEPES, pH 7.8, 50 mM KCl, 10% glycerol, 2 mM dithiothreitol and the above protease inhibitors). Nuclear and cytosol fractions are stored frozen at -80 degrees C. until used for mobility shift assays or determination of estrogen receptor content.
Briefly, to each reaction tube was added 0.01 mg nuclear extract, 2 μg poly dIdC, 50 mM NaCl, 1 mM dithiothreitol and 10 mM Tris, pH 7.5 in a total volume of 0.01 ml and the mixture was kept at room temperature for 10 minutes. A ^32 P-labelled estrogen response element [ERE]

estrogen receptors = molecular target: T2, estrogen receptors (Homo sapiens, UniProt P03372); assay: Quantification of estrogen receptors in nuclear and whole cell extracts (ER-EIA monoclonal kit), Table 1; assay type: cell-based, human (MCF-7 human breast cancer cells); conditions: estrogen receptors in nuclear extracts
T2 construct: estrogen receptor extracted from MCF-7 human breast tumor cells; endogenous in cells; host or cells: MCF-7 human breast cancer cells (nuclear extract, cytosol or whole cell extract)
T2 sequence (P03372 1-595): T1 sequence (P03372 1-595)
Protocol: as §1
Whole cell extracts of tumor cells are prepared by the method of Reese and Katzenellenbogen, Nuc. Acids Res., 19: 6595-6602 (1991), with some modifications. Cell monolayers are rinsed once with HBSS, then scraped into HBSS and sedimented by centrifugation (5 min., 250×g). After resuspending in 1 mL HBSS, the cells are again sedimented at 250×g for 5 min at 4° C. The cell pellet is resuspended in lysis/extract buffer containing 20 mM Tris, pH 7.5, 10% glycerol (v/v), 0.5M sodium chloride and 0.5% NP-40 (v/v) and incubated on ice for 25 minutes, then the supernatants are dialyzed against 25 mM HEPES, pH 7.8, 10% glycerol (v/v), 0.5 mM dithiothreitol and 50 mM potassium chloride for 2 hours at 4° C. Both the lysis/extraction and the dialysis buffers contain protease inhibitors which included 0.5 mM phenylmethylsulfonylfluoride, 0.05 mg/mL leupeptin, 0.05 mg/mL aprotinin, 0.00-25 mg/mL pepstatin, and 0.005 mg/mL antipain. Dialyzed whole cell extracts are stored in aliquots at -80° C. until used.
The protein concentration for nucleus and cytosol fractions are determined with a BIO-RAD kit, according to the manufacturer's instructions.
Estrogen receptor levels in nuclear and whole cell extracts of tumor cells were quanitated using the ER-EIA monoclonal kit manufactured by Abbott Laboratories (Diagnostic Division) according to the kit instructions.
receptors in nuclear extracts.
.dagger.WCE refers to IC50 value for estrogen receptors in whole cel
A slash dividing two numbers indicates the results of two separate

MCF-7 estrogen receptor = molecular target: T3, MCF-7 estrogen receptor (Homo sapiens, UniProt P03372); assay: Competitive binding assay, Relative Binding Affinities on binding of estradiol to MCF-7 estrogen receptor
T3 construct: estrogen receptor extracted from MCF-7 human breast tumor cells; endogenous in cells; host or cells: MCF-7 human breast cancer cells (nuclear extract, cytosol or whole cell extract)
T3 sequence (P03372 1-595): T1 sequence (P03372 1-595)
Protocol: Briefly, RBAs are determined from competitive binding assays with several concentrations of estradiol (E2) with and without test compound. After 16-18 hours of incubation at 4 degrees C., unbound [^3 H] E2 is separated from ER-bound [^3 H] E2. The IC50 is determined and the RBA is calculated as: […]

[2] = system: MCF-7 human breast tumor cells; assay: Inhibition of growth of MCF-7 human breast tumor cells; assay type: cell-based; conditions: MCF7, MCF-7 cells, medium with 0.001 mg/ml insulin
MCF-7 tumors = assay: Inhibition of growth of MCF-7 tumors implanted in nu/nu mice; assay type: in vivo, female nu/nu mice; conditions: for tumor volume: n = 5, in mm³
[3] = read-out: integrated volume of shifted ERE oligo as percentage of control, given as % inhibition

## CCCCN(C)C(=O)CCCCCCCNC(=O)Cc1c(C)n(C(=O)c2ccc(Cl)cc2)c2ccc(O)cc12 [MDL 101,906, 8-[[5-Hydroxy-1-(4-chlorobenzoyl)-2-methyl-1H-indol-3-yl]-acetylamino]-octanoic acid methyl-butyl-amide]
[1]
  IC50: 8.5 µM
[1]; [3]
  inhibition at 2 µM: 81%
  inhibition at 5 µM: 76%
  inhibition at 10 µM: 46%
  inhibition at 20 µM: 38%
Estrogen receptors
  IC50: 19 µM
Estrogen receptors; second of two separate experiments (after the slash)
  IC50: 8.6 µM
MCF-7 estrogen receptor; doses of 100 or 200 nM
  inhibition of estradiol binding to MCF-7 ER: did not significantly inhibit
MCF-7 estrogen receptor; typically, at doses of 100 or 200 nM
  inhibition of estradiol binding to MCF-7 ER: less than 10%
[2]
  IC50: 3.8 µM
MCF-7 tumors; 10 mg/kg i.p., day 14 after tumor implantation
  tumor volume: 49 ± 18
MCF-7 tumors; 10 mg/kg i.p., day 22 after tumor implantation
  tumor volume: 111 ± 36
MCF-7 tumors; 10 mg/kg i.p., day 29 after tumor implantation
  tumor volume: 155 ± 43
MCF-7 tumors; 10 mg/kg i.p., day 36 after tumor implantation
  tumor volume: 255 ± 70
MCF-7 tumors; 20 mg/kg i.p., day 14 after tumor implantation
  tumor volume: 58 ± 9
MCF-7 tumors; 20 mg/kg i.p., day 22 after tumor implantation
  tumor volume: 140 ± 16
MCF-7 tumors; 20 mg/kg i.p., day 29 after tumor implantation
  tumor volume: 197 ± 30
MCF-7 tumors; 20 mg/kg i.p., day 36 after tumor implantation
  tumor volume: 282 ± 38
MCF-7 tumors; 50 mg/kg i.p., day 14 after tumor implantation
  tumor volume: 77 ± 14
MCF-7 tumors; 50 mg/kg i.p., day 22 after tumor implantation
  tumor volume: 143 ± 13
MCF-7 tumors; 50 mg/kg i.p., day 29 after tumor implantation
  tumor volume: 178 ± 53
MCF-7 tumors; 50 mg/kg i.p., day 36 after tumor implantation
  tumor volume: 291 ± 79
MCF-7 tumors; 100 mg/kg i.p., day 14 after tumor implantation
  tumor volume: 56 ± 10
MCF-7 tumors; 100 mg/kg i.p., day 22 after tumor implantation
  tumor volume: 81 ± 16
MCF-7 tumors; 100 mg/kg i.p., day 29 after tumor implantation
  tumor volume: 110 ± 24
MCF-7 tumors; 100 mg/kg i.p., day 36 after tumor implantation
  tumor volume: 170 ± 41
MCF-7 tumors; 10 to 100 mg/kg i.p.
  tumor volume over time, dose dependence: dose-dependent decrease in the tumor volume over time
MCF-7 tumors; highest dose (100 mg/kg), 36 days after tumor implantation
  decrease in tumor volume over control: 55%
MCF-7 tumors; intraperitoneal injections, suspension in 20% DMSO/water
  size of the tumors compared to control mice: reduced the size of the tumors compared to control mice
